Paper PMC5259778, “Candidate pheromone receptors of codling moth Cydia pomonella respond to pheromones and kairomones” (Scientific Reports, 2017)

Test system: CpomOrco + OR1
Experiment: Whole-cell patch-clamp recording of HEK293T cells expressing CpomOrco + OR1
Format: cell-based, Cydia pomonella
Details: VUAA3 200 μM, n = 37
Description: To test transient expression of CpomORs for calcium imaging or patch-clamp recording experiments, 35-mm petri dishes containing semi-confluent HEK293T cells were transiently transfected. To transfect cells with CpomOrco, we used 1.0 μg of pcDNA5/TO/CpomOrco DNA. In order to promote expression of the OR[51], we used double aliquots for pcDNA5/TO/CpomOR DNAs (2.0 μg), combined with 1.0 μg of pcDNA5/TO/CpomOrco for co-transfections (CpomOrco + ORs). […] In patch-clamp recordings, 1.0 μg of a separate plasmid DNA (pXOOM, Clontech) carrying the coding sequence for a green fluorescent protein (GFP) was used to report expression. In order to report candidate OR-expressing cells, expression of both fluorescent reporter genes was under the regulation of the same promoter for CpomOR genes (CMV). Transfection DNAs were dissolved in 100 μL sterile DMEM, mixed with 3.0 μL Calfectin (SignaGen, Rockville, MD, USA) following the recommended protocol. […] The currents were measured with a 200B patch-clamp amplifier (Molecular Devices) and a digital interface (Digidata 1320 A, Molecular Devices), low pass filtered at 5.0 kHz, sampled at 1-2 kHz. […] The OR channel current noise was recorded using outside-out patches excised from HEK293T cells and evoked by stimulation with 250 μM VUAA3. […]

## CCn1c(SCC(=O)Nc2ccc(C(C)C)cc2)nnc1-c1ccncc1 [VUAA3, acetamide,2-[[4-ethyl-5-(4-pyridinyl)-4H-1,2,4-triazol-3-yl]thio]-N-[4-(1-methylethyl)phenyl]-]
  inward current amplitude, variation: −49 to −1165 pA
  inward current mean amplitude: −431 ± 54 pA
